Results on 21 molecules are retold here after US20260137703A1, “2-AMINO-PYRIDO[2,3-D]PYRIMIDIN-7(8H)-ONE AND 7-AMINO-1-PYRIMIDO[4,5-D]PYRIMIDIN-2(1 H)-ONE DERIVATIVES AS EGFR INHIBITORS FOR THE TREATMENT OF CANCER” (Cancer Research Technology Limited, priority 2022, published 2026).

For assay [1], the target named is T1, Phospho-EGFR (Tyr1068) in A431 cells (Homo sapiens, UniProt P00533).
T1 construct: endogenous in cells; host or cells: A431
The assay can be described thus: HTRF pEGFR/total EGFR in A431 cells with EGF stimulation. The conditions noted are these: ratio pEGFR/total EGFR, compound 2.5 hours then 100 ng/ml EGF 30 mins. The class given is cell-based. As for the experimental part: (§1) Cells were plated at 20,000 cells per well in 96 well plates and placed at 37° C. 5% CO2. Once adhered (after 24 h) cells were treated with compounds dissolved in DMSO at a final concentration of 0.1% DMSO in media. Compounds were diluted in media then added to cells for 2.5 hours in duplicate, 100 ng/ml EGF (ThermoFisher, PHG0311) was added to all compound treated cells as well as a control for 30 mins. Compound and media were removed from the cells, then 50 ul of HTRF lysis buffer was added (lysis buffer was diluted from 4× stock to 1× in DI water, with 1% blocking agent also added). Cells were lysed on a plate shaker (2000 rpm) for 30 minutes at room temperature. pEGFR expression was monitored using the Cisbio Phospho-EGFR (Tyr1068) cellular kit (64EG1PEH). Total EGFR expression was monitored using the Cisbio Total EGFR cellular kit (64NG1PEH) as per manufacturer's instructions. Fluorescence emission was read at two different wavelengths (665 nm and 620 nm) on a PheraStar. Results were calculated as ratio of pEGFR/total EGFR and then percentage of 0 μM control.
A general note: Time-resolved FRET reads energy transfer from a long-lived donor to a nearby acceptor.

In assay [2] the target is T2, Phospho-EGFR (Tyr1068) in H1975 C797S cells (CRISPR-edited EGFR C797S) (Homo sapiens, UniProt P00533, C797S/L858R/T790M).
T2 construct: host or cells: H1975 C797S (CRISPR-edited)
T2 sequence (P00533 25-1210 T790M/C797S/L858R): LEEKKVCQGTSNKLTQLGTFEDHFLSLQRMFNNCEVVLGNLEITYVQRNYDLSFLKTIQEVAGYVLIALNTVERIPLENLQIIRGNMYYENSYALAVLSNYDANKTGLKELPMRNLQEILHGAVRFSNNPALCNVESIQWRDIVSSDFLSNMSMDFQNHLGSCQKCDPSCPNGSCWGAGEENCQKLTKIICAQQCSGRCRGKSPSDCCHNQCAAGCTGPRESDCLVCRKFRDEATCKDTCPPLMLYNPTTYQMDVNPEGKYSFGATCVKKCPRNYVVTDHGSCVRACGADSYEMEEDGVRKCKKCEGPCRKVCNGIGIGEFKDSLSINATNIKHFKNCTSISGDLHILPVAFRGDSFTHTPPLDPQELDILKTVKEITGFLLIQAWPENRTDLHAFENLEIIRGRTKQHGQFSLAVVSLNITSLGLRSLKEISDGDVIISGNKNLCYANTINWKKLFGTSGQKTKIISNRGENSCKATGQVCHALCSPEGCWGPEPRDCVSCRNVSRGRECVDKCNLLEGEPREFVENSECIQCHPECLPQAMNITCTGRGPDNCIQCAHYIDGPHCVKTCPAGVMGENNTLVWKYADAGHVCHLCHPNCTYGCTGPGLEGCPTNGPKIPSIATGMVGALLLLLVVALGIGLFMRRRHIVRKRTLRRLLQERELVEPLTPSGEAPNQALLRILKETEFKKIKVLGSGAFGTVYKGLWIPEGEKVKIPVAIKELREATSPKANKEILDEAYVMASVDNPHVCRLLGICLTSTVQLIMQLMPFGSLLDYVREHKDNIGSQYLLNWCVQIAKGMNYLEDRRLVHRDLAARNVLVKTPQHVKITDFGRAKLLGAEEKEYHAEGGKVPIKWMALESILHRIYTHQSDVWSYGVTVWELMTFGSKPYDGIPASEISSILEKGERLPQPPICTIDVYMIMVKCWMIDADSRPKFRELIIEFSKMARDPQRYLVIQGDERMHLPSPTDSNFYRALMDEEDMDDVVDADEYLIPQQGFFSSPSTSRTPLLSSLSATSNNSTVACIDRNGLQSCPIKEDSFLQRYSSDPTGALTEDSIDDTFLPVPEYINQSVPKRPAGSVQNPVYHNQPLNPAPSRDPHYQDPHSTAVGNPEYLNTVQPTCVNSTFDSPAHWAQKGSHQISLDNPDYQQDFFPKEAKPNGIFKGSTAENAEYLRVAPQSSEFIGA
In words: HTRF pEGFR/total EGFR in H1975 C797S cells. The class given is cell-based. The conditions noted are these: ratio pEGFR/total EGFR, compound 3 hours. As for the experimental part:
as §1, with “[…].” for “Cells were plated at 20,000 cells per well in 96 well plates and placed at 37° C. 5% CO2.”, “3” for “2.5”, “duplicate.” for “duplicate, 100 ng/ml EGF (ThermoFisher, PHG0311) was added to all compound treated cells as well as a control for 30 mins.”

For assay [3], the target named is T3, Phospho-EGFR (Tyr1068) in H1975 cells (Homo sapiens, UniProt P00533, L858R/T790M).
T3 construct: host or cells: H1975
T3 sequence (P00533 25-1210 T790M/L858R): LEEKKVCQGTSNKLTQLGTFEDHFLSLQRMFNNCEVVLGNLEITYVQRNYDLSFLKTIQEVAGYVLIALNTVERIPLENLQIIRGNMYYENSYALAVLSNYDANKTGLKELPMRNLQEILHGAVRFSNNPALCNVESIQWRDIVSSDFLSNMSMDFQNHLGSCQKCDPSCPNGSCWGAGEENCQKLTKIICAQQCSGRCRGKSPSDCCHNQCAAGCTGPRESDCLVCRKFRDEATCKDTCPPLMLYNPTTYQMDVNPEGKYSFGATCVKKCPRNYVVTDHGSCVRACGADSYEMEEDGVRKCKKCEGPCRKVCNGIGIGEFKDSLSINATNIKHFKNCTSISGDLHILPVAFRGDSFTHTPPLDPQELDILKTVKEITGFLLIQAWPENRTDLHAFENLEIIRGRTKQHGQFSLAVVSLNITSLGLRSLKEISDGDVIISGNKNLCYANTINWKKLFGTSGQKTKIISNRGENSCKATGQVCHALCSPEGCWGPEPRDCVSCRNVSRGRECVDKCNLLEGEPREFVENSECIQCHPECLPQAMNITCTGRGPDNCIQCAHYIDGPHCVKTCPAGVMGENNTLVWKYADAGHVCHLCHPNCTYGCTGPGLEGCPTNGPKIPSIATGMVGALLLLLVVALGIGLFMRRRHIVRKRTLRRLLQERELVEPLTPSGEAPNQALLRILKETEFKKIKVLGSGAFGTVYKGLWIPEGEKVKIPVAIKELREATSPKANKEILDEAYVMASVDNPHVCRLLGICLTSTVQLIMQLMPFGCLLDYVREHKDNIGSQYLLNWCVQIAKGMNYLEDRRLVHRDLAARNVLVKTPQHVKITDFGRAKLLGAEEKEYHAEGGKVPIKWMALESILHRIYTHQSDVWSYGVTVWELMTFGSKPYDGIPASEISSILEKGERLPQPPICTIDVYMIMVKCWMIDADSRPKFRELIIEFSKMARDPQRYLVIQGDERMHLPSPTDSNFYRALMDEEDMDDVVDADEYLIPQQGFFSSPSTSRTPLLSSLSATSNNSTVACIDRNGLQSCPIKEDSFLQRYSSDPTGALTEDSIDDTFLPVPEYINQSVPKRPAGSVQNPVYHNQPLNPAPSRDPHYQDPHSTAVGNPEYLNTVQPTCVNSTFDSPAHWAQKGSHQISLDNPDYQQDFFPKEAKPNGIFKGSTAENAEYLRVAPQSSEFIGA
The assay can be described thus: HTRF pEGFR/total EGFR in H1975 cells. The conditions noted are these: ratio pEGFR/total EGFR, compound 3 hours. The class given is cell-based. As for the experimental part:
H1975 cells (ATCC CRL-5908) were plated at 20,000 cells per well in 96 well plates and placed at 37° C. 5% CO2. Once adhered (after 24 h) cells were treated with compounds dissolved in DMSO at a final concentration of 0.1% DMSO in media. Compounds were diluted in media then added to cells for 3 hours in duplicate. Compound and media were removed from the cells, then 50 ul of HTRF lysis buffer is added (lysis buffer was diluted from 4× stock to 1× in DI water, with 1% blocking agent also added). Cells were lysed on a plate shaker (2000 rpm) for 30 minutes at room temperature. pEGFR expression was monitored using the Cisbio Phospho-EGFR (Tyri068) cellular kit (64EG1PEH). Total EGFR expression was monitored using the Cisbio Total EGFR cellular kit (64NG1PEH) as per manufacturer's instructions. Fluorescence emission was read at two different wavelengths (665 nm and 620 nm) on a PheraStar. Results were calculated as ratio of pEGFR/total EGFR and then percentage of 0 μM control.

For assay [4], the target named is CtermHisTag-mEGFR Wild type (Homo sapiens, UniProt P00533). In words: biochemical.
CtermHisTag-mEGFR Wild type, sequence (P00533 whole entry): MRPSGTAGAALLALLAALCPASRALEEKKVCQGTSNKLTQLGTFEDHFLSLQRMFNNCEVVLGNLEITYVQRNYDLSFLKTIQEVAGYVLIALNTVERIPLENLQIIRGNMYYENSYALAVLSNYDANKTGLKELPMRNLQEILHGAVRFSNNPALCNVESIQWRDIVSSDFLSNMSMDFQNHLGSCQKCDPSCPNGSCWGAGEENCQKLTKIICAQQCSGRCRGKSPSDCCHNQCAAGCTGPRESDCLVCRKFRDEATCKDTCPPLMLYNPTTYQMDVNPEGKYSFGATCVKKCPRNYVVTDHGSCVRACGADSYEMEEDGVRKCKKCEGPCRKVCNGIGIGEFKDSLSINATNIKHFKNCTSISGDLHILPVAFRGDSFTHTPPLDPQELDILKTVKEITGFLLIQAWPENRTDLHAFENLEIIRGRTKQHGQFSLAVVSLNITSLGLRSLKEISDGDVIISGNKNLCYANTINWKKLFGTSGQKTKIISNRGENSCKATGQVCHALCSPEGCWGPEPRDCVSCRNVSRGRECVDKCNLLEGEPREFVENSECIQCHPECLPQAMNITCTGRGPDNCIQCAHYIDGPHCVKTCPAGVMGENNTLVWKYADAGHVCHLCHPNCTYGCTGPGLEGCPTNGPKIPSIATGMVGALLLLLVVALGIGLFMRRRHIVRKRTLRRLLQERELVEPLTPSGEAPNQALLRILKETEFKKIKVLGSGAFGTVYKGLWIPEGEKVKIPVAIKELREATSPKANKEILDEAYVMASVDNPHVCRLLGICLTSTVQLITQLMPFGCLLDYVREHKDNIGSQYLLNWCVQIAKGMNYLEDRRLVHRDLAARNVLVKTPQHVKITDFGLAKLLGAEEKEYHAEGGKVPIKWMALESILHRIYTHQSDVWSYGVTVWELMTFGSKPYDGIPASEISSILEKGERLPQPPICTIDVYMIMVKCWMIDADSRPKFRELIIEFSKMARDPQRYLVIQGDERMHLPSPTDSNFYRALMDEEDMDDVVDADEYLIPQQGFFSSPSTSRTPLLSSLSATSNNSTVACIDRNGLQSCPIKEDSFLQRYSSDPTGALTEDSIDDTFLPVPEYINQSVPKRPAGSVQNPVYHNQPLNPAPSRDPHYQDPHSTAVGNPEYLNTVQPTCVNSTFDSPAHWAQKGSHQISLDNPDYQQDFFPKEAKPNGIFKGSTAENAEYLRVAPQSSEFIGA

Broadly, the IC50 is the concentration at which inhibition is half-maximal.

T1 sequence (P00533 25-1210): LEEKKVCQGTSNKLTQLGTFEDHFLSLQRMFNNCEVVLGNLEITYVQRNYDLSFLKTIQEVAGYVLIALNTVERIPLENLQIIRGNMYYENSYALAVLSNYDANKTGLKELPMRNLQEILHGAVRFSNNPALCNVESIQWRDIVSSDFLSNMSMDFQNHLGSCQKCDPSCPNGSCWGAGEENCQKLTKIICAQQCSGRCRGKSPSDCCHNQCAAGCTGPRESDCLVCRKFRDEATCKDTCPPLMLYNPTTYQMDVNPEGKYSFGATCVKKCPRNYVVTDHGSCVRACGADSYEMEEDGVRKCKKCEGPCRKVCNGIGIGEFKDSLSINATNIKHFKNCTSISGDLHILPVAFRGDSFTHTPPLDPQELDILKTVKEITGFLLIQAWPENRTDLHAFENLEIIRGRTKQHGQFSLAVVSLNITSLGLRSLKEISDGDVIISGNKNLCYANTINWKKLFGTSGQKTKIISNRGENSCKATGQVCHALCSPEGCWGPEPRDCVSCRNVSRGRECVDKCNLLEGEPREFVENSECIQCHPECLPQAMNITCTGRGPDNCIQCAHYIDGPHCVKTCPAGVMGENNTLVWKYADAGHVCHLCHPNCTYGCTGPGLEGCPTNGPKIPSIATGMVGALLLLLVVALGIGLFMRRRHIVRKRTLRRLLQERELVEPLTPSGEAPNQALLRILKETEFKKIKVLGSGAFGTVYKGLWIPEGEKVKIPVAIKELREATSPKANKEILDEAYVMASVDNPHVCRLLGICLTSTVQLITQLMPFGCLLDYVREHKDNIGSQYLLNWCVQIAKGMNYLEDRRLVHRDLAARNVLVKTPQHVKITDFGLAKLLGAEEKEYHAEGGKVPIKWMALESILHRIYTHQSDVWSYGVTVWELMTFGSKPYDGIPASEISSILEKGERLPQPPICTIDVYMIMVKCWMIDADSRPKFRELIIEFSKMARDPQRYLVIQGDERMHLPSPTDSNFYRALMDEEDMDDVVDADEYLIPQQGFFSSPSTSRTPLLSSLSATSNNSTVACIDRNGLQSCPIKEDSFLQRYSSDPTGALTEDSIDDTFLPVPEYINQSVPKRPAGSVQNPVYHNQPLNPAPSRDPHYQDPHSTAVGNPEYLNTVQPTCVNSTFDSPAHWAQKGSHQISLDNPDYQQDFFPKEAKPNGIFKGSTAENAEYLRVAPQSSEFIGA

Take `C#Cc1cc(=O)n(-c2ccccc2)c2nc(Nc3ccc(N4CCN(CC)CC4)cc3)ncc12` [Example 15, 2-{[4-(4-Ethylpiperazin-1-yl)phenyl]amino}-5-ethynyl-8-phenylpyrido[2,3-d]pyrimidin-7-one]: the IC50 in assay [1] was > 3 µM; in assay [2] it was < 0.5 µM; in assay [3] it was < 0.5 µM; in assay [4], < 1 µM.
Regarding `C#Cc1cc(=O)n(C2CCOC2)c2nc(Nc3ccc(N4CCN(C)CC4)cc3)ncc12` (centres unmarked) [Example 105, 5-ethynyl-2-{[4-(4-methylpiperazin-1-yl)phenyl]amino}-8-(oxolan-3-yl)pyrido[2,3-d]pyrimidin-7-one], the IC50 was > 3 µM in assay [1], 1 to 3 µM in assay [2], 1 to 3 µM in assay [3] and > 10 µM in assay [4].
Take `C#Cc1c(C)c(=O)n(-c2ccccc2)c2nc(Nc3ccc(N4CCN(C)CC4)cc3)ncc12` [Example 151, 5-Ethynyl-6-methyl-2-{[4-(4-methylpiperazin-1-yl)phenyl]amino}-8-phenylpyrido[2,3-d]pyrimidin-7-one]: the IC50 in assay [1] lay in the range of 1 to 3 µM; in assay [2] it was 0.5 to 1 µM; in assay [3], 0.5 to 1 µM; in assay [4] it was 1 to 10 µM.
For the molecule `C#Cc1cc(=O)n(C)c2nc(Nc3cccc(N(C)C(=O)CN(C)C)c3)ncc12` [Example 53, 2-(Dimethylamino)-N-[3-({5-ethynyl-8-methyl-7-oxopyrido[2,3-d]pyrimidin-2-yl}amino)phenyl]-N-methylacetamide], the IC50 in assay [1] is > 3 µM; in assay [2] it was > 3 µM; in assay [3], > 3 µM; in assay [4] it was 1 to 10 µM.
Consider `C#Cc1cc(=O)n(C2CCNC2=O)c2nc(Nc3ccc(N4CCN(C)CC4)cc3)ncc12` (centres unmarked) [Example 104, 3-(5-ethynyl-2-{[4-(4-methylpiperazin-1-yl)phenyl]amino}-7-oxopyrido[2,3-d]pyrimidin-8-yl)pyrrolidin-2-one], for which the IC50 in assay [1] was > 3 µM; in assay [2] it was 0.5 to 1 µM; in assay [3], < 0.5 µM; in assay [4], > 10 µM.
For `C#Cc1cc(=O)n(-c2ccccc2)c2nc(Nc3ccc(N(C)CCN(C)C)cc3)ncc12` [Example 34, 2-((4-((2-(Dimethylamino)ethyl)(methyl)amino)phenyl)amino)-5-ethynyl-8-phenylpyrido[2,3-d]pyrimidin-7(8H)-one], the IC50 in assay [1] is > 3 µM; in assay [2], > 3 µM; in assay [3], < 0.5 µM; in assay [4], < 1 µM.
Consider `C#Cc1cc(=O)n([C@H]2CC[C@@H](NC(=O)C(C)C)CC2)c2nc(Nc3ccc(N4CCN(C)CC4)cc3)ncc12` [Example 82, 2-Methyl-N-[(1s,4s)-4-(5-ethynyl-2-{[4-(4-methylpiperazin-1-yl)phenyl]amino}-7-oxopyrido[2,3-d]pyrimidin-8-yl)cyclohexyl]propanamide], for which the IC50 is > 3 µM in assay [1], < 0.5 µM in assay [2], < 0.5 µM in assay [3] and < 1 µM in assay [4].
With `C#Cc1cc(=O)n(C2CCCC2)c2nc(Nc3cccc(N(C)[C@H]4CC[C@@H](CS(C)(=O)=O)CC4)c3)ncc12` [Example 204], the IC50 was > 3 µM in assay [2], > 3 µM in assay [3] and < 1 µM in assay [4].
For the molecule `C#Cc1cc(=O)n(C2CCCC2)c2nc(Nc3ccccc3N3CCCC(CS(C)(=O)=O)C3)ncc12` (centres unmarked) [Example 202, 8-Cyclopentyl-5-ethynyl-2-({2-[3-(methanesulfonylmethyl)piperidin-1-yl]phenyl}amino)pyrido[2,3-d]pyrimidin-7-one], the results for the half-inhibitory concentration (IC50) in assay [2], in assay [3] and in assay [4] were > 3 µM, > 3 µM and > 10 µM, respectively.
`C#Cc1cc(=O)n2c3nc(ncc13)Nc1ccc(N3CCN(C)CC3)c(c1)OC[C@@H]1CC[C@@H](C1)C2` [Example 233, (5^1S,5^3R)-3^5-Ethynyl-1^4-(4-methylpiperazin-1-yl)-3^7,3^8-dihydro-7-oxa-2-aza-3(2,8)-pyrido[2,3-d]pyrimidina-1(1,3)-benzena-5(1,3)-cyclopentanacycloheptaphan-3^7-one]: the results for the half-inhibitory concentration (IC50) in assay [2], in assay [3] and in assay [4] were < 0.5 µM, < 0.5 µM and < 1 µM, respectively.
As for `C#Cc1c(-c2ccccc2Cl)c(=O)n(C)c2nc(Nc3ccccc3OC)ncc12` [Example 123, 6-(2-chlorophenyl)-5-ethynyl-2-[(2-methoxyphenyl)amino]-8-methylpyrido[2,3-d]pyrimidin-7-one], the IC50 in assay [4] was > 10 µM.
On the same count and under the same terms, with `C#Cc1cc(=O)n(-c2ccccc2)c2nc(Nc3ccc(N4CCOCC4)cc3OC)ncc12` [Example 35, 5-Ethynyl-2-((2-methoxy-4-morpholinophenyl)amino)-8-phenylpyrido[2,3-d]pyrimidin-7(8H)-one] the figure was < 1 µM.
Same read-out and setting: with `C#Cc1cc(=O)n(-c2ccccc2)c2nc(Nc3ccccc3CO)ncc12` [Example 41, 5-Ethynyl-2-{[2-(hydroxymethyl)phenyl]amino}-8-phenylpyrido[2,3-d]pyrimidin-7-one] the figure was > 10 µM; with `C=Cc1c(-c2ccccc2Cl)c(=O)n(C)c2nc(Nc3cccc(OC)c3)ncc12` [Example 168, 6-(2-chlorophenyl)-5-ethenyl-2-[(3-methoxyphenyl)amino]-8-methylpyrido[2,3-d]pyrimidin-7-one], > 10 µM.
Same read-out and setting: with `C#Cc1cc(=O)n(C)c2nc(Nc3ccc(N(C)CCN(C)C)cc3OC)ncc12` [Example 42, 2-[(4-{[2-(Dimethylamino)ethyl](methyl)amino}-2-methoxyphenyl)amino]-5-ethynyl-8-methylpyrido[2,3-d]pyrimidin-7-one] the figure was 1 to 10 µM.
Turning to `C#Cc1c(N)c(=O)n(-c2ccccc2)c2nc(Nc3ccccc3OC)ncc12` [Example 142, 6-amino-5-ethynyl-2-[(2-methoxyphenyl)amino]-8-phenylpyrido[2,3-d]pyrimidin-7-one], the IC50 in assay [4] is > 10 µM.
With `C=Cc1c(-c2ccccc2Cl)c(=O)n(C)c2nc(Nc3ccccc3OC)ncc12` [Example 161, 6-(2-chlorophenyl)-5-ethenyl-2-[(2-methoxyphenyl)amino]-8-methylpyrido[2,3-d]pyrimidin-7-one], the IC50 in assay [4] was > 10 µM.
In assay [4], `C#Cc1c(-c2ccccc2)c(=O)n(C)c2nc(Nc3ccc(N(C)CCN(C)C)cc3OC)ncc12` [Example 121, 2-[(4-[[2-(dimethylamino)ethyl](methyl)amino]-2-methoxyphenyl)amino]-5-ethynyl-8-methyl-6-phenylpyrido[2,3-d]pyrimidin-7-one] came in with an IC50 of 1 to 10 µM.
Consider `C#Cc1c(NC(C)=O)c(=O)n(-c2ccccc2)c2nc(Nc3ccccc3OC)ncc12` [Example 143, N-[5-ethynyl-2-[(2-methoxyphenyl)amino]-7-oxo-8-phenylpyrido[2,3-d]pyrimidin-6-yl]acetamide], for which the IC50 in assay [4] is > 10 µM.
As for `C#Cc1c(-c2c(Cl)cccc2Cl)c(=O)n(C)c2nc(Nc3cccc(CO)c3)ncc12` [Example 125, 6-(2,6-dichlorophenyl)-5-ethynyl-2-{[3-(hydroxymethyl)phenyl]amino}-8-methylpyrido[2,3-d]pyrimidin-7-one], the IC50 in assay [1], in assay [2] and in assay [3] was > 3 µM in each case.
In the case of `C#Cc1cc(=O)n(C(C)C)c2nc(Nc3ccccc3OC)ncc12` [Example 83, 5-Ethynyl-8-isopropyl-2-[(2-methoxyphenyl)amino]pyrido[2,3-d]pyrimidin-7-one], in assay [4], the IC50 was > 10 µM.
